For the assay, the target named is T1, human apelin receptor (Homo sapiens, UniProt P35414).
T1 construct: expressed in transfected cells
T1 sequence (P35414 1-380): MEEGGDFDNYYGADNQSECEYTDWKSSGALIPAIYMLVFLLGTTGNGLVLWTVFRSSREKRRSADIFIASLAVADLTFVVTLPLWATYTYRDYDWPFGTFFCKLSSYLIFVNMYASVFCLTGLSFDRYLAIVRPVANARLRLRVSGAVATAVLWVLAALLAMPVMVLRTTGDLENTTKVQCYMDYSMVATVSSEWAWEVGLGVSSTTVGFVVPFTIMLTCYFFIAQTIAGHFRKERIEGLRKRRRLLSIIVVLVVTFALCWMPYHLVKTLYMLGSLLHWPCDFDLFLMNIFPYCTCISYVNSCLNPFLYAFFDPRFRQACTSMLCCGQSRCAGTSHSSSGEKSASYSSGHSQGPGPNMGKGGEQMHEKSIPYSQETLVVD
Description: Determination of agonism on the human apelin receptor by a calcium fluorescence assay (FLIPR). The format is cell-based. The note with it: HEK293 cells stably transfected with human apelin receptor and Giaq protein, Fluo-4 calcium fluorescence, read-out: EC50 (APJ agonism). An excerpt: Determination of Agonism on the Human Apelin Receptor by a Calcium Fluorescence Assay (FLIPR)
The assay is based on the detection of intracellular calcium changes detected by the selective, calcium-chelating dye Fluo-4 (Molecular Probes). A large fluorescence intensity increase is observed upon calcium association with Fluo-4. The dye is delivered to the cell interior using an acetoxymethylester form of Fluo-4, where the intracellular esterase activity results in the charged species being released and trapped within the cytoplasm of the cell. […] By co-expressing the human apelin receptor and a promiscuous Giaq protein, agonism of the apelin receptor couples to phospholipase-C resulting in intracellular calcium mobilization.
The HEK293 cells were stably transfected with the human apelin receptor and the Giaq protein. Cells were selected and maintained in a log phase of growth at 37° and 5% CO2 in the Iscove's minimal essential medium, 10% fetal calf serum, 1× Penicillin-Streptomycin, 400 μg/mL G418. One day prior the assay, cells were passaged by accutase and plated at a density of 50,000 cells/well onto a 96-well plates with black border but clear bottom (Costar, cat#3904) in a final volume of 200 μl growth medium.
In order to load the cells the next day with the calcium-sensitive dye, growth medium was carefully replaced by dye solution (100 μl/well) containing Fluo-4 (4 μM) in basic measurement buffer (135 mM NaCl, 5 mM KCl, 1 mM magnesium sulphate, 5 mM glucose, 20 mM Hepes, 2.5 mM probenecid; adjusted to pH 7.4). Cells were incubated for 1 h at 37° C., and then washed 3× with buffer containing no dye. The washer was programmed to leave a remaining volume of 150 μl after the third wash in the plate.
During the dye-loading of the cells, a serial compound dilution was performed in a separate 96-well plate with overall 4× increased concentrations. Small aliquots of DMSO stock solutions of the compounds (10 mM in 100% DMSO were aliquoted into 150 μl buffer in the first rows of the 96-well plates, and then serially diluted by a factor of 1:3 transferring each time 30 μl to the next rows already containing 60 μl buffer. All compounds were tested in a least 7 concentrations, each condition was performed in triplicates. As comparator, we used freshly prepared apelin-13 solutions, for which also a concentration-response curve was determined at each measurement day. The compound plate was incubated for 10 min after the final dilutions steps at 37° C. before transferring the dye-loaded cell plate and the compound plate into a FLIPR Tetra reader (Molecular Devices). Measurement within this reader started by pipetting the agonist solution (50 μl) on the cell plate. Overall perform 60 reads were performed with an interval of 2 sec. The maximum of the fluorescence transient was used to calculate the agonistic response of the cells. In order to normalize this response, which may vary from plate to plate we set the maximum fluorescence achieved by 1 μM apelin-13 on this plate as 100%.
EC-50 values for apelin-13 and the apelin receptor compounds described in this patent were determined by standard algorithms using a specific software package.

As a reminder, the EC50 is the concentration that produces a half-maximal response. For `CCC(CC)n1c(Cc2cccs2)nc2cc(C(=O)N[C@@H](CC(C)C)C(=O)NCCCCN3CCCC3)ccc21` [Example 253, 1-(1-Ethyl-propyl)-2-thiophen-2-ylmethyl-1H-benzoimidazole-5-carboxylic acid [(S)-3-methyl-1-(4-pyrrolidin-1-yl-butylcarbamoyl)-butyl]-amide], the EC50 came out at 0.242 µM.
Take `CCC(C)[C@H](NC(=O)c1ccc2c(c1)nc(Cc1cccs1)n2C(CC)CC)C(=O)O` (stereo partly drawn) [Example 121, (S)-2-{[1-(1-Ethyl-propyl)-2-thiophen-2-ylmethyl-1H-benzoimidazole-5-carbonyl]-amino}-3-methyl-pentanoic acid]: the half-maximal effective concentration (EC50) was 0.074 µM.
As for `CCC(CC)n1c(Cc2cccs2)nc2cc(C(=O)N[C@@H](CC(C)C)C(=O)NCc3nnn[nH]3)ccc21` [Example 399, 1-(1-Ethyl-propyl)-2-thiophen-2-ylmethyl-1H-benzoimidazole-5-carboxylic acid {(S)-3-methyl-1-[(1H-tetrazol-5-ylmethyl)-carbamoyl]-butyl}-amide], the EC50 worked out at 0.099 µM.
In the case of `CCC(CC)n1c(Cc2cccs2)nc2cc(C(=O)N[C@@H](CC(C)C)C(=O)NC3CCN(Cc4ccccn4)CC3)ccc21` [Example 295, 1-(1-Ethyl-propyl)-2-thiophen-2-ylmethyl-1H-benzoimidazole-5-carboxylic acid [(S)-3-methyl-1-(1-pyridin-2-ylmethyl-piperidin-4-ylcarbamoyl)-butyl]-amide] it was 1.83 µM; in that of `CCC(CC)n1c(Cc2cccs2)nc2cc(C(=O)N[C@@H](CC3CCCCC3)C(N)=O)ccc21` [Example 173, 1-(1-Ethyl-propyl)-2-thiophen-2-ylmethyl-1H-benzoimidazole-5-carboxylic acid ((S)-1-carbamoyl-2-cyclohexyl-ethyl)-amide], 6.7 µM; in that of `CC(C)C[C@H](NC(=O)c1ccc2c(c1)nc(Cc1cccs1)n2C1CCCCCC1)C(=O)O` [Example 111, (S)-2-[(1-Cycloheptyl-2-thiophen-2-ylmethyl-1H-benzoimidazole-5-carbonyl)-amino]-4-methyl-pentanoic acid], 0.579 µM.
The result for `CCC(CC)n1c(Cc2cccs2)nc2cc(C(=O)N[C@@H](CC(C)C)C(=O)N(C)CC3CCCO3)ccc21` (stereo partly drawn) [Example 387, 1-(1-Ethyl-propyl)-2-thiophen-2-ylmethyl-1H-benzoimidazole-5-carboxylic acid {(S)-3-methyl-1-[methyl-(tetrahydro-furan-2-ylmethyl)-carbamoyl]-butyl}-amide] reads 1.14 µM.
As for `CC(C)C[C@@H](CCC(=O)O)NC(=O)c1ccc2c(c1)nc(Cc1cccs1)n2[C@@H]1CCCC[C@H]1C` [Example 70, (R)-6-Methyl-4-{[1-((1R,2R)-2-methyl-cyclohexyl)-2-thiophen-2-ylmethyl-1H-benzoimidazole-5-carbonyl]-amino}-heptanoic acid], the half-maximal effective concentration (EC50) turned out to be 0.179 µM.
Regarding `CCCC(NC(=O)c1ccc2c(c1)nc(Cc1cccs1)n2C(CC)CC)c1ccccn1` (stereo not shown) [Example 477, 1-(1-Ethyl-propyl)-2-thiophen-2-ylmethyl-1H-benzoimidazole-5-carboxylic acid (1-pyridin-2-yl-butyl)-amide], the EC50 amounted to 2.72 µM.
`CC(C)C[C@H](NC(=O)c1ccc2c(c1)nc(Cc1ccccc1)n2C1CCCCC1C)C(=O)O` (stereo partly drawn) [Example 143, (S)-2-{[2-Benzyl-1-(2-methyl-cyclohexyl)-1H-benzoimidazole-5-carbonyl]-amino}-4-methyl-pentanoic acid]: the EC50 turned out to be 2.45 µM.
`CCC(CC)n1c(Cc2cccs2)nc2cc(C(=O)N[C@@H](CC(C)C)C(=O)N3CCCC3)ccc21` [Example 379, 1-(1-Ethyl-propyl)-2-thiophen-2-ylmethyl-1H-benzoimidazole-5-carboxylic acid [(S)-3-methyl-1-(pyrrolidine-1-carbonyl)-butyl]-amide]: the EC50 was 1.8 µM.
With `CCC(CC)n1c(CC2CCCCC2)nc2cc(C(=O)N[C@@H](CC(C)C)C(=O)O)ccc21` [Example 120, (S)-2-{[2-Cyclohexylmethyl-1-(1-ethyl-propyl)-1H-benzoimidazole-5-carbonyl]-amino}-4-methyl-pentanoic acid], the concentration for a half-maximal effect (EC50) came out at 24.1 µM.
Take `CCCCC(CC(=O)O)NC(=O)c1ccc2c(c1)nc(Cc1cccs1)n2[C@@H]1CCCC[C@H]1C` (stereo partly drawn) [Example 56, 3-{[1-((1R,2R)-2-Methyl-cyclohexyl)-2-thiophen-2-ylmethyl-1H-benzoimidazole-5-carbonyl]-amino}-heptanoic acid]: the EC50 came out at 0.157 µM.
For `CCC(CC)n1c(Cc2cccs2)nc2cc(C(=O)N[C@H](CCC(=O)O)CC(C)C)ccc21` [Example 163, (R)-4-{[1-(1-Ethyl-propyl)-2-thiophen-2-ylmethyl-1H-benzoimidazole-5-carbonyl]-amino}-6-methyl-heptanoic acid], the EC50 is 0.051 µM.
The result for `CCC(CC)n1c(Cc2cccs2)nc2cc(C(=O)N[C@@H](CC(C)C)C(=O)NCCc3nnn[nH]3)ccc21` [Example 400, 1-(1-Ethyl-propyl)-2-thiophen-2-ylmethyl-1H-benzoimidazole-5-carboxylic acid {(S)-3-methyl-1-[2-(1H-tetrazol-5-yl)-ethylcarbamoyl]-butyl}-amide] reads 0.07 µM; that for `CCC(CC)n1c(Cc2cccs2)nc2cc(C(=O)N[C@@H](CC(C)C)C(=O)N3CCC(OC)CC3)ccc21` [Example 373, 1-(1-Ethyl-propyl)-2-thiophen-2-ylmethyl-1H-benzoimidazole-5-carboxylic acid [(S)-1-(4-methoxy-piperidine-1-carbonyl)-3-methyl-butyl]-amide], 1.84 µM; that for `CCC(CC)n1c(Cc2cccs2)nc2cc(C(=O)NC(CCO)C3CC3)ccc21` (stereo not shown) [Example 213, 1-(1-Ethyl-propyl)-2-thiophen-2-ylmethyl-1H-benzoimidazole-5-carboxylic acid (1-cyclopropyl-3-hydroxy-propyl)-amide], 29.9 µM.
Regarding `CCC(CC)n1c(Cc2cccs2)nc2cc(C(=O)N[C@@H](CC(C)C)C(=O)NC3CCN(Cc4cccnc4)CC3)ccc21` [Example 308, 1-(1-Ethyl-propyl)-2-thiophen-2-ylmethyl-1H-benzoimidazole-5-carboxylic acid [(S)-3-methyl-1-(1-pyridin-3-ylmethyl-piperidin-4-ylcarbamoyl)-butyl]-amide], the EC50 amounted to 0.672 µM.
As for `C[C@@H]1CCCC[C@H]1n1c(Cc2cccs2)nc2cc(C(=O)NC3(CC(=O)O)CCCCC3)ccc21` [Example 66, (1-{[1-((1R,2R)-2-Methyl-cyclohexyl)-2-thiophen-2-ylmethyl-1H-benzoimidazole-5-carbonyl]-amino}-cyclohexyl)-acetic acid], the concentration for a half-maximal effect (EC50) was determined as 0.087 µM.
In the case of `CC(C)C[C@H](NC(=O)c1ccc2c(c1)nc(Cc1cccs1)n2C1CCCC1C)C(=O)O` (single isomer, unassigned) [Example 428] it was 0.266 µM; in that of `CCC(CC)n1c(Cc2cccs2)nc2cc(C(=O)NC3(CC(=O)O)CCCCC3)ccc21` [Example 64, (1-{[1-(1-Ethyl-propyl)-2-thiophen-2-ylmethyl-1H-benzoimidazole-5-carbonyl]-amino}-cyclohexyl)-acetic acid], 0.176 µM; in that of `CCC(C)Cn1c(CC2CCCCC2)nc2cc(C(=O)N[C@@H](CC(C)C)C(=O)O)ccc21` (stereo partly drawn) [Example 135, (S)-2-{[2-Cyclohexylmethyl-1-(2-methyl-butyl)-1H-benzoimidazole-5-carbonyl]-amino}-4-methyl-pentanoic acid], 3.8 µM.

These data come from US9156796B2, “Benzoimidazole-carboxylic acid amide derivatives as APJ receptor modulators” (SANOFI, priority 2013, dated 2015).
